Experimental findings from PubChem BioAssay AID1259407 (Chemical Carcinogenesis Research Information System (CCRIS), 2018) are described below.

The subject of the data set is CCRIS mutagenicity, Ames/micronucleus/aberration tests. In words: CCRIS mutagenicity studies. An excerpt: The CCRIS database contains chemical records with carcinogenicity, mutagenicity, tumor promotion, and tumor inhibition test results. It was developed by the National Cancer Institute (NCI). Data are derived from studies cited in primary journals, current awareness tools, NCI reports, and other sources. Test results have been reviewed by experts in carcinogenesis and mutagenesis.
CCRIS provides historical information from the years 1985 - 2011. It is no longer updated.
This is an archive assay for CCRIS mutagenicity studies.

[1] abbreviates: Test System: AMES SALMONELLA TYPHIMURIUM, Strain/Indicator: TA98, Metabolic Activation: NONE, Method: PREINCUBATION
[2] abbreviates: Test System: AMES SALMONELLA TYPHIMURIUM, Strain/Indicator: TA100, Metabolic Activation: NONE, Method: PREINCUBATION
The mark [3] stands for this setting: Test System: AMES SALMONELLA TYPHIMURIUM, Strain/Indicator: TA1535, Metabolic Activation: NONE, Method: PREINCUBATION
Where [4] appears, read: Test System: AMES SALMONELLA TYPHIMURIUM, Strain/Indicator: TA1537, Metabolic Activation: NONE, Method: PREINCUBATION
[5] abbreviates: Test System: AMES SALMONELLA TYPHIMURIUM, Strain/Indicator: TA98, Metabolic Activation: NONE, Method: STANDARD PLATE.
Where [6] appears, read: Test System: AMES SALMONELLA TYPHIMURIUM, Strain/Indicator: TA100, Metabolic Activation: NONE, Method: STANDARD PLATE.

Calls of active or inactive are those of the source. The rule behind the calls is not given here.

Turning to `COC(=O)C1=C(C)NC(COC(N)=O)=C(C(=O)OC(C)C)C1c1cccc(Cl)c1Cl` (stereo unspecified), the mutagenic call is, setting by setting: under setting [1], “inactive; negative”; (Test System: AMES SALMONELLA TYPHIMURIUM, Strain/Indicator: TA98, Metabolic Activation: RAT, LIVER, S-9, PHENOBARBITAL AND 5,6-BENZOFLAVONE, Method: PREINCUBATION) “inactive; negative”; under setting [2], “inactive; negative”; (Test System: AMES SALMONELLA TYPHIMURIUM, Strain/Indicator: TA100, Metabolic Activation: RAT, LIVER, S-9, PHENOBARBITAL AND 5,6-BENZOFLAVONE, Method: PREINCUBATION) “inactive; negative”; under setting [3], “inactive; negative”; (Test System: AMES SALMONELLA TYPHIMURIUM, Strain/Indicator: TA1535, Metabolic Activation: RAT, LIVER, S-9, PHENOBARBITAL AND 5,6-BENZOFLAVONE, Method: PREINCUBATION) “inactive; negative”. Also, the mutagenic call reads like this: under setting [4], “inactive; negative”; (Test System: AMES SALMONELLA TYPHIMURIUM, Strain/Indicator: TA1537, Metabolic Activation: RAT, LIVER, S-9, PHENOBARBITAL AND 5,6-BENZOFLAVONE, Method: PREINCUBATION) “inactive; negative”; (Test System: E. COLI, Strain/Indicator: WP2 UVRA, Metabolic Activation: NONE, Method: PREINCUBATION) “inactive; negative”; (Test System: E. COLI, Strain/Indicator: WP2 UVRA, Metabolic Activation: RAT, LIVER, S-9, PHENOBARBITAL AND 5,6-BENZOFLAVONE, Method: PREINCUBATION) “inactive; negative”.

For `COC(=O)C(c1ccccc1)C1CCCCN1` (stereo unspecified), the mutagenic call was “inactive; negative” (End Point: IN VITRO CHROMOSOMAL ABERRATIONS, Test System: CHINESE HAMSTER OVARY CELLS, Metabolic Activation: NONE); “active; positive” (End Point: IN VITRO CHROMOSOMAL ABERRATIONS, Test System: CHINESE HAMSTER OVARY CELLS, Metabolic Activation: RAT, LIVER, S-9, AROCLOR 1254); “inactive; negative” (End Point: In vivo chromosomal aberrations, Test System: Peripheral blood lymphocytes, Species: Monkey, Strain/Sex: Rhesus/Male, Route: Oral); “inactive; negative” (End Point: In vivo micronucleus, Test System: Peripheral blood lymphocytes, Species: Monkey, Strain/Sex: Rhesus/Male, Route: Oral); “inactive; negative” (Test System: AMES SALMONELLA TYPHIMURIUM, Strain/Indicator: TA97, Metabolic Activation: HAMSTER, LIVER, S-9, AROCLOR 1254 (10 OR 30%), Method: PREINCUBATION); “inactive; negative” (Test System: AMES SALMONELLA TYPHIMURIUM, Strain/Indicator: TA97, Metabolic Activation: NONE, Method: PREINCUBATION). Further, the mutagenic call reads like this: (Test System: AMES SALMONELLA TYPHIMURIUM, Strain/Indicator: TA97, Metabolic Activation: RAT, LIVER, S-9, AROCLOR 1254 (10 OR 30%), Method: PREINCUBATION) “inactive; negative”; (Test System: AMES SALMONELLA TYPHIMURIUM, Strain/Indicator: TA98, Metabolic Activation: HAMSTER, LIVER, S-9, AROCLOR 1254 (10%), Method: PREINCUBATION) “inactive; negative”; (Test System: AMES SALMONELLA TYPHIMURIUM, Strain/Indicator: TA98, Metabolic Activation: HAMSTER, LIVER, S-9, AROCLOR 1254 (30%), Method: PREINCUBATION) “inactive; negative”; under setting [1], “inactive; negative”; (Test System: AMES SALMONELLA TYPHIMURIUM, Strain/Indicator: TA98, Metabolic Activation: RAT, LIVER, S-9, AROCLOR 1254 (10%), Method: PREINCUBATION) “inactive; negative”; (Test System: AMES SALMONELLA TYPHIMURIUM, Strain/Indicator: TA98, Metabolic Activation: RAT, LIVER, S-9, AROCLOR 1254 (30%), Method: PREINCUBATION) “inactive; negative”. In addition, the mutagenic call runs as follows: (Test System: AMES SALMONELLA TYPHIMURIUM, Strain/Indicator: TA100, Metabolic Activation: HAMSTER, LIVER, S-9, AROCLOR 1254 (10%), Method: PREINCUBATION) “inactive; negative”; (Test System: AMES SALMONELLA TYPHIMURIUM, Strain/Indicator: TA100, Metabolic Activation: HAMSTER, LIVER, S-9, AROCLOR 1254 (30%), Method: PREINCUBATION) “inactive; negative”; under setting [2], “inactive; negative”; (Test System: AMES SALMONELLA TYPHIMURIUM, Strain/Indicator: TA100, Metabolic Activation: RAT, LIVER, S-9, AROCLOR 1254 (10%), Method: PREINCUBATION) “inactive; negative”; (Test System: AMES SALMONELLA TYPHIMURIUM, Strain/Indicator: TA100, Metabolic Activation: RAT, LIVER, S-9, AROCLOR 1254 (30%), Method: PREINCUBATION) “inactive; negative”; (Test System: AMES SALMONELLA TYPHIMURIUM, Strain/Indicator: TA1535, Metabolic Activation: HAMSTER, LIVER, S-9, AROCLOR 1254 (10%), Method: PREINCUBATION) “inactive; negative”. The mutagenic call reads like this: (Test System: AMES SALMONELLA TYPHIMURIUM, Strain/Indicator: TA1535, Metabolic Activation: HAMSTER, LIVER, S-9, AROCLOR 1254 (30%), Method: PREINCUBATION) “inactive; negative”; under setting [3], “inactive; negative”; (Test System: AMES SALMONELLA TYPHIMURIUM, Strain/Indicator: TA1535, Metabolic Activation: RAT, LIVER, S-9, AROCLOR 1254 (10%), Method: PREINCUBATION) “inactive; negative”; (Test System: AMES SALMONELLA TYPHIMURIUM, Strain/Indicator: TA1535, Metabolic Activation: RAT, LIVER, S-9, AROCLOR 1254 (30%), Method: PREINCUBATION) “inactive; negative”; (Test System: AMES SALMONELLA TYPHIMURIUM, Strain/Indicator: TA1537, Metabolic Activation: HAMSTER, LIVER, S-9, AROCLOR 1254 (10%), Method: PREINCUBATION) “inactive; negative”; under setting [4], “inactive; negative”. The mutagenic call was “inactive; negative” (Test System: AMES SALMONELLA TYPHIMURIUM, Strain/Indicator: TA1537, Metabolic Activation: RAT, LIVER, S-9, AROCLOR 1254 (10%), Method: PREINCUBATION) and “inactive; negative” (Test System: Rhesus monkey peripheral blood lymphocytes, Strain/Indicator: HPRT/6-Thioguanine, Metabolic Activation: None, Method: Determined at 3-mo intervals from test subjects exposed to test chemical for 20 mo).

With `C[C@]12O[C@H]1[C@H]1CCCC[C@@H]1c1ccccc12`, the mutagenic call was “inactive; negative” under setting [5] and “inactive; negative” under setting [6].

For `C1=C\CC/C=C\CC/1.Nc1ccccc1.[Cl-].[Rh]`, the mutagenic call (Test System: AMES SALMONELLA TYPHIMURIUM, Strain/Indicator: TA2410, Metabolic Activation: NONE, Method: STANDARD PLATE) was “inactive; negative”.

`C=CCCCCCCCCCCC`: the mutagenic call runs as follows: (Test System: AMES SALMONELLA TYPHIMURIUM, Strain/Indicator: TA98, Metabolic Activation: MOUSE, LIVER, S-9, Method: STANDARD PLATE) “inactive; negative”; under setting [5], “inactive; negative”; (Test System: AMES SALMONELLA TYPHIMURIUM, Strain/Indicator: TA100, Metabolic Activation: MOUSE, LIVER, S-9, Method: STANDARD PLATE) “inactive; negative”; under setting [6], “inactive; negative”; (Test System: AMES SALMONELLA TYPHIMURIUM, Strain/Indicator: TA1535, Metabolic Activation: NONE, Method: STANDARD PLATE) “inactive; negative”; (Test System: AMES SALMONELLA TYPHIMURIUM, Strain/Indicator: TA1538, Metabolic Activation: NONE, Method: STANDARD PLATE) “inactive; negative”.

Turning to `Cc1ccc2cc3c4c(ccc3c3c2c1CC3)C(O)C(O)C=C4` (stereo unspecified), the mutagenic call (Test System: CHINESE HAMSTER V-79, Strain/Indicator: V-79/8-AZAGUANINE, Metabolic Activation: NONE, Method: STANDARD PLATE) was “active; positive”.
